# Assay results from article PMC9925730, “Controlled sequential in situ self-assembly and disassembly of a fluorogenic cisplatin prodrug for cancer theranostics” (Nature Communications, 2023).
# Where “and” joins values, the source holds several entries; their conditions need not be identical. Equal values may be shown once.
# Legend:
# [1] = Blood analysis in healthy mice (blood count, biochemistry); assay type: in vivo; design: BUN / CRE / WBC / HGB / HCT / MCH / MCHC / MCV / RBC / ALT / AST / TP / T-Bil / Alb: unit not given here; conditions: for ALT / AST / Alb / BUN / CRE / HCT / MCH / MCHC / MCV / PLT / RBC / T-Bil / TP / WBC: Supplementary Fig. 36
# [2] = Body weight of mice with orthotopic HepG2/Luc liver tumors; assay type: in vivo; conditions: individual samples, in g (unit assumed)
# [3] = LogP measurement in solutions; assay type: physicochemical; conditions: octanol / octanol-saturated water
# Text: incompatibility between particles i and j. Considering the relative position and chemical components of all the beads, we always keep aAB = aAC = 28, aAS = aCS = 25, and aBS = 35. The concentration of ABC or AB is fixed at 0.03. We performed the dynamics of total 81 000 DPD beads in a cubic box (303) under the periodic boundary conditions.
# In these conditions, we carry out 1.0 × 106 steps for each simulation.
# Molecular simulation using the Materials Studio program. For each molecule, the most favourable crystal packing was predicted using the Polymorph module as implemented in Materials Studio. The crystal structure prediction protocol includes three parts, Packing, Geometry Optimization and Clustering. […]
# Evaluation of the dephosphorylated efficacy of P-CyPt towards ALP. […] The resulting fluorescence intensities in each well in the first 30 minutes were recorded on a Spark™ 10M Multimode Microplate Reader (λex/em = 680/710 nm), and every two-minute intervals record one point. The amount of CyPt at each time point was determined by a standard curve under the same […]
# LogP measurement in solutions. […] The UV-vis absorption spectroscopy or fluorescence spectrum was recorded after being diluted in MeOH/H2O (1:1) system (<1% octanol). The logP value was calculated by dividing the amount in the octanol layer to […]
# ALP = target: T1, ALP (Bos taurus, UniProt P19111); test: ALP-triggered dephosphorylation and in situ self-assembly in solution (HPLC, DLS, TEM); assay type: biochemical; design: amount of compound in the P-CyPt solution (HPLC, Fig. 2h) / mean size by TEM (Fig. 2i) / mean size by DLS (Fig. 2i): unit not given here; conditions: for amount of compound in the P-CyPt solution (HPLC, Fig. 2h) / Pt release (ICP-OES, Fig. 2h) / mean size by DLS (Fig. 2i) / mean size by TEM (Fig. 2i): P-CyPt 10 μM, ALP 100 U/L 37 °C
# T1 construct: Alkaline phosphatase from bovine; purchased Sigma-Aldrich; host or cells: bovine intestinal mucosa (tissue-derived)
# Procedure: To evaluate the ALP-triggered dephosphorylation and in situ self-assembly process, a solution of P-CyPt (10 μM) in Tris buffer (1 mL) was incubated with ALP (100 U/L) at 37 °C. HPLC, DLS, and TEM analyses were performed at 0, 5, 10, 15, 20, and 30 min. To evaluate the GSH-triggered reduction and disassembly process, P-CyPt (10 μM) in Tris buffer (1 mL) was first incubated with ALP (100 U/L) at 37 °C for 30 min to allow the formation of Pt^IVNPs. The solution was then treated with 10 mM GSH at 37 °C, which was monitored by HPLC, DLS, and TEM at 10, 20, 30, 40, 50, and 60 min.
# [4] = Urine and faeces analysis by HPLC (mCy-containing compounds); assay type: in vivo; conditions: Time period 8-12 h; individual mice
# [5] = Supplementary Fig. 36, first HGB block, individual mice
# [6] = Supplementary Fig. 36, first HGB block, mean of 3 mice
# T1 sequence (P19111 20-506 limits assumed): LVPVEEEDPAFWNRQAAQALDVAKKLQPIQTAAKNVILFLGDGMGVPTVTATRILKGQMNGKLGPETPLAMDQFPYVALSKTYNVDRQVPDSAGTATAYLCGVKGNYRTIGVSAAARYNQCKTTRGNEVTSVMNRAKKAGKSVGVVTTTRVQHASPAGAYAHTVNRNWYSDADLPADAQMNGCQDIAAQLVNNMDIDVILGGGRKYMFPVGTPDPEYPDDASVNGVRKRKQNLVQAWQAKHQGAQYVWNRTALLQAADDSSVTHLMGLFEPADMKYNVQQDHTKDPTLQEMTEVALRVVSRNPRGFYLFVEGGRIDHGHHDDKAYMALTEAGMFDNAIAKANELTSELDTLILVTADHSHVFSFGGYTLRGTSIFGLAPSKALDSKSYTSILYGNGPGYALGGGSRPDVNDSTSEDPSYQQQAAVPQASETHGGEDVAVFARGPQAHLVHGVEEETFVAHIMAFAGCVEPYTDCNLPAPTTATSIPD
smiles,measurement,setting,value
"[NH2][Pt]([NH2])([Cl])[Cl] [CDDP, cisplatin]",HGB,[1]; [5],90 (2×) and 67
same,HGB,[1]; [6],82.333
same,ALT,[1]; individual mice,45.502 and 43.964 and 66.025
same,AST,[1]; individual mice,126.05 and 97.802 and 100.507
same,Alb,[1]; individual mice,26.65 and 25.18 and 35.22
same,BUN,[1]; individual mice,18.956 and 37.908 and 23.94
same,CRE,[1]; individual mice,19.831 and 68.509 and 25.561
same,HCT,[1]; individual mice,35.4 and 40.2 and 41.2
same,MCH,[1]; individual mice,16.6 and 15.9 and 18.6
same,MCHC,[1]; individual mice,350 and 331 and 324
same,MCV,[1]; individual mice,51.5 and 49.5 and 51.3
same,PLT,[1]; individual mice,591 and 289 and 329
same,RBC,[1]; individual mice,7.14 and 6.54 and 6.58
same,T-Bil,[1]; individual mice,21.47 and 18.852 and 18.358
same,TP,[1]; individual mice,42.81 and 40.21 and 50.47
same,WBC,[1]; individual mice,1.9 and 1.2 and 1.6
same,ALT,[1]; mean of 3 mice,51.830
same,AST,[1]; mean of 3 mice,108.120
same,Alb,[1]; mean of 3 mice,29.017
same,BUN,[1]; mean of 3 mice,26.935
same,CRE,[1]; mean of 3 mice,37.967
same,HCT,[1]; mean of 3 mice,38.933
same,MCH,[1]; mean of 3 mice,17.033
same,MCHC,[1]; mean of 3 mice,335.000
same,MCV,[1]; mean of 3 mice,50.767
same,PLT,[1]; mean of 3 mice,403.000
same,RBC,[1]; mean of 3 mice,6.753
same,T-Bil,[1]; mean of 3 mice,19.560
same,TP,[1]; mean of 3 mice,44.497
same,WBC,[1]; mean of 3 mice,1.567
same,Body weight of mice (Supplementary Fig. 34),[2]; time 0 d,19.83 and 20.11 and 22.01
same,Body weight of mice (Supplementary Fig. 34),[2]; time 3 d,18.72 and 20.66 and 21.22
same,Body weight of mice (Supplementary Fig. 34),[2]; time 6 d,17.7 and 19.43 and 21.14
same,Body weight of mice (Supplementary Fig. 34),[2]; time 9 d,17.17 and 18.45 and 20.33
same,Body weight of mice (Supplementary Fig. 34),[2]; time 12 d,16.32 and 17.76 and 19.54
same,Body weight of mice (Supplementary Fig. 34),[2]; time 15 d,16.24 and 17.17 and 19.09
CC1(C)C(/C=C/C2=C3Oc4cc(O)c(Cl)cc4C=C3CCC2)=[N+](CCCNC(=O)[C@@H](Cc2ccccc2)NC(=O)[C@@H](Cc2ccccc2)NC(=O)CCC(=O)[O][Pt]([NH2])([NH2])([OH])([Cl])[Cl])c2ccccc21 [CyPt],LogP value,[3],2.50 ± 0.03
same,"amount of compound in the P-CyPt solution (HPLC, Fig. 2h)",ALP; 0 min,0.00
same,"amount of compound in the P-CyPt solution (HPLC, Fig. 2h)",ALP; 5 min,28.25
same,"amount of compound in the P-CyPt solution (HPLC, Fig. 2h)",ALP; 10 min,54.36
same,"amount of compound in the P-CyPt solution (HPLC, Fig. 2h)",ALP; 15 min,71.75
same,"amount of compound in the P-CyPt solution (HPLC, Fig. 2h)",ALP; 20 min,94.94
same,"amount of compound in the P-CyPt solution (HPLC, Fig. 2h)",ALP; 30 min,100.00
same,"Compound found in excreta (%), Supplementary Table S5",[4],0%
same,"Compound found in excreta (%), Supplementary Table S6",[4],0.6127% and 0.8857% and 0.7667%
same,"Compound found in excreta (%), Supplementary Table S7",[4],0.79% and 1.63% and 1.075%
CC1(C)C(/C=C/C2=C3Oc4cc(OP(=O)(O)O)c(Cl)cc4C=C3CCC2)=[N+](CCCNC(=O)[C@@H](Cc2ccccc2)NC(=O)[C@@H](Cc2ccccc2)NC(=O)CCC(=O)[O][Pt]([NH2])([NH2])([OH])([Cl])[Cl])c2ccccc21 [P-CyPt],HGB,[1]; [5],124 and 128 and 97
same,HGB,[1]; [6],116.333
same,HGB,"[1]; Supplementary Fig. 36, second HGB block (between AST and TP), mean of 3 mice",3.426
same,ALT,[1]; individual mice,64.638 and 69.471 and 57.14
same,AST,[1]; individual mice,93.668 and 95.637 and 124.668
same,Alb,[1]; individual mice,28.06 and 34.76 and 32.73
same,BUN,[1]; individual mice,22.456 and 18.592 and 16.632
same,CRE,[1]; individual mice,23.568 and 18.005 and 14.662
same,HCT,[1]; individual mice,42 and 36 and 35.3
same,MCH,[1]; individual mice,18.3 and 18.9 and 16.6
same,MCHC,[1]; individual mice,315 and 345 and 304
same,MCV,[1]; individual mice,50.3 and 49.6 and 53.5
same,PLT,[1]; individual mice,463 and 494 and 673
same,RBC,[1]; individual mice,7.22 and 7.49 and 6.74
same,T-Bil,[1]; individual mice,20.416 and 17.788 and 25.91
same,TP,[1]; individual mice,41.72 and 48.65 and 44.25
same,WBC,[1]; individual mice,2.3 and 2.6 and 1.5
same,ALT,[1]; mean of 3 mice,63.750
same,AST,[1]; mean of 3 mice,104.658
same,Alb,[1]; mean of 3 mice,31.850
same,BUN,[1]; mean of 3 mice,19.227
same,CRE,[1]; mean of 3 mice,18.745
same,HCT,[1]; mean of 3 mice,37.767
same,MCH,[1]; mean of 3 mice,17.933
same,MCHC,[1]; mean of 3 mice,321.333
same,MCV,[1]; mean of 3 mice,51.133
same,PLT,[1]; mean of 3 mice,543.333
same,RBC,[1]; mean of 3 mice,7.150
same,T-Bil,[1]; mean of 3 mice,21.371
same,TP,[1]; mean of 3 mice,44.873
same,WBC,[1]; mean of 3 mice,2.133
same,blood count and biochemistry values,"[1]; healthy nude mice, 1 day post i.v. 2.25 mg kg-1 Pt",all the values were within the normal reference
same,LogP value,[3],0.68 ± 0.03
same,conversion of P-CyPt into CyPt on incubation with ALP (HPLC),"ALP; 100 U/L ALP, Tris buffer pH 8.0, after 30 min",completely converted into CyPt
same,"Pt release (ICP-OES, Fig. 2h)",ALP; 0 min,0%
same,"amount of compound in the P-CyPt solution (HPLC, Fig. 2h)",ALP; 0 min,100.00
same,mean size by DLS (Fig. 2i),ALP; 0 min,0.00
same,mean size by TEM (Fig. 2i),ALP; 0 min,0.00
same,"Pt release (ICP-OES, Fig. 2h)",ALP; 5 min,0%
same,"amount of compound in the P-CyPt solution (HPLC, Fig. 2h)",ALP; 5 min,72.64
same,mean size by DLS (Fig. 2i),ALP; 5 min,45.78
same,mean size by TEM (Fig. 2i),ALP; 5 min,54.14
same,"Pt release (ICP-OES, Fig. 2h)",ALP; 10 min,0%
same,"amount of compound in the P-CyPt solution (HPLC, Fig. 2h)",ALP; 10 min,46.65
same,mean size by DLS (Fig. 2i),ALP; 10 min,88.09
same,mean size by TEM (Fig. 2i),ALP; 10 min,87.54
same,"Pt release (ICP-OES, Fig. 2h)",ALP; 15 min,0%
same,"amount of compound in the P-CyPt solution (HPLC, Fig. 2h)",ALP; 15 min,28.27
same,mean size by DLS (Fig. 2i),ALP; 15 min,112.94
same,mean size by TEM (Fig. 2i),ALP; 15 min,105.56
same,"Pt release (ICP-OES, Fig. 2h)",ALP; 20 min,0%
same,"amount of compound in the P-CyPt solution (HPLC, Fig. 2h)",ALP; 20 min,6.15
same,mean size by DLS (Fig. 2i),ALP; 20 min,150.95
same,mean size by TEM (Fig. 2i),ALP; 20 min,121.94
same,"Pt release (ICP-OES, Fig. 2h)",ALP; 30 min,0%
same,"amount of compound in the P-CyPt solution (HPLC, Fig. 2h)",ALP; 30 min,1.54
same,mean size by DLS (Fig. 2i),ALP; 30 min,162.05
same,mean size by TEM (Fig. 2i),ALP; 30 min,152.65
same,"Compound found in excreta (%), Supplementary Table S5",[4],1.424% and 1.642% and 1.178%
same,"Compound found in excreta (%), Supplementary Table S6",[4],0.04756% and 0.06874% and 0.05951%
same,Body weight of mice (Supplementary Fig. 34),[2]; time 0 d,18.59 and 19.8 and 19.81
same,Body weight of mice (Supplementary Fig. 34),[2]; time 3 d,18.83 and 19.54 and 20.74
same,Body weight of mice (Supplementary Fig. 34),[2]; time 6 d,17.51 and 20.1 and 20.66
same,Body weight of mice (Supplementary Fig. 34),[2]; time 9 d,18.1 and 20.43 and 20.94
same,Body weight of mice (Supplementary Fig. 34),[2]; time 12 d,19.14 and 19.19 and 21.74
same,Body weight of mice (Supplementary Fig. 34),[2]; time 15 d,19.31 and 19.45 and 21.01
